The values that follow are results of earlier work, collected in patent publication US8062870B2, “Enantiomerically resolving acyloxyalkyl thiocarbonates used in synthesizing acyloxyalkyl carbamate prodrugs” (XenoPort, Inc., priority 2008, dated 2011).

The conditions of the data set: dosed either orally or directly into the colon of a mammal.

Regarding `CC(C)C[C@H](CNC(=O)OC(C)OC(=O)c1ccccc1)CC(=O)O` (some centres unmarked), the bioavailability as pregabalin entry is “high bioavailability”. As to `CC(C)C[C@H](CNC(=O)OC(OC(=O)C(C)C)C(C)C)CC(=O)O` (some centres unmarked), the bioavailability as pregabalin result was “high bioavailability”.
